The text below walks through data of patent publication US12550899B2, “Topramezone derivative and use thereof” (priority 2023, dated 2026).

What all share (assay): Laboratory bioactivity efficacy test 2.2 (foliar spray)
Holding throughout (assay type): in vivo

For assay [1], the system named is Abutilon theophrasti medicus. The following applies: for Visual observation of weeds: 3 to 7 days after application, broadleaf weeds like Abutilon theophrasti medicus; for GR50 (95% confidence interval) / GR90 (95% confidence interval): fresh weight control efficacy 20 days post-application. As for the experimental part:
(§1) • grassy weeds: Digitaria sanguinalis, Eleusine indica, Echinochloa crusgalli; • Broadleaf weeds: Portulaca oleracea, Abutilon theophrasti medicus. 2.2.2 Test Conditions
(§2) The soil used for the test was a mixture of surface 20 cm loam and vermiculite, mixed in a volume ratio of 3:1 to form a culture soil. The test weeds were cultured in a glass greenhouse with a temperature ranging from 25° C. to 35° C. and under natural light.
(§3) Quantified seeds of Digitaria sanguinalis, Eleusine indica, Echinochloa crusgalli, Portulaca oleracea, and Abutilon theophrasti medicus were sown in plastic pots with a diameter of 9 cm, and covered with 1-2 mm of soil. The ports were then placed in enamel trays filled with water, and watered by bottom irrigation. After the water seeped to the soil surface, the pots were transferred to the glass greenhouse for standby.
(§4) Five dosages were set for Compound I, Compound II and the control herbicide Topramezone, which were 3.75, 7.5, 15, 30 and 60 grams of active ingredient per hectare respectively. In addition, a blank control was also prepared.
(§5) The required amount of the herbicide was accurately measured out and directly added with water, which was diluted to the required dosage by using the serial dilution method for standby.
(§6) The test was conducted on grassy weeds at the two-leaf and one-heart stage, Abutilon theophrasti medicus at the 2-true-leaf stage, and Portulaca oleracea at the 3-5-leaf stage, with the stems and leaves both sprayed uniformly. The ASS-4 automatic control spraying system with a fan-shaped nozzle was used indoors for herbicide application. Depending on the nozzle pressure and flow rate, 50 mL of herbicide solution was applied to a spraying area of 1.1 m^2 (which was equivalent to the water consumption of 30 L per mu). The system's operating speed was calibrated. The plastic pots to be treated were arranged evenly on the spraying platform to ensure uniform treatment. The spray pressure was set to 0.35 MPa, and the flow rate of the fan-shaped nozzle was set to 800 mL/min. The spraying was carried out in sequence from the low dosage to the high dosage. Each treatment was repeated two to four times.
(§7) The herbicide was applied once. After spraying, the pots were air-dried for one day and then placed in the glass greenhouse. Regular watering was conducted to maintain moisture.
(§8) The damage symptoms of the weeds (such as growth inhibition, chlorosis, malformation, etc.) were carefully recorded at 3, 7, 10, and 20 days after herbicide application. A visual comparison of the herbicide effectiveness was made. At 20 days post-application, the fresh weight of the aboveground parts of the weeds from each treatment group was measured, and the fresh weight control efficacy was calculated.
(§9) The treatment results were calculated according to the following formula: weed fresh weight control efficacy (%)=(control fresh weight−treatment fresh weight)/control fresh weight×100.
(§10) A DPS statistical software was used to conduct regression analysis on the logarithmic values of the herbicide dosage and the probit values of the weed fresh weight control efficacy, and the correlation coefficient, GR50, GR90, and the 95% confidence interval were calculated.

In another assay the test system is Portulaca oleracea. The conditions noted are these: for GR50 (95% confidence interval) / GR90 (95% confidence interval): fresh weight control efficacy 20 days post-application. As for the experimental part: as §1, §2, §3, §4, §5, §6, §7, §8, §9, §10
The test system of another assay is Echinochloa crusgalli. The conditions noted are these: fresh weight control efficacy 20 days post-application. Here is the method:
as §1, §2, §3, §4, §5, §6, §7, §8, §9, §10

In another assay the test system is Eleusine indica. The conditions noted are these: fresh weight control efficacy 20 days post-application. Here is the method:
as §1, §2, §3, §4, §5, §6, §7, §8, §9, §10

The test system of the next assay is Digitaria sanguinalis. The following applies: fresh weight control efficacy 20 days post-application. Here is the method:
as §1, §2, §3, §4, §5, §6, §7, §8, §9, §10

Turning to `Cc1c(C(=O)c2cnn(C)c2OC(=O)C(C)(C)C)ccc(S(C)(=O)=O)c1C1=NOCC1` [Compound II, 4-(3-(4,5-dihydroisoxazol-3-yl)-2-methyl-4-(methylsulfonyl)benzoyl)-1-methyl-1H-pyrazol-5-yl pivalate], in assay [1], the “Visual observation of weeds” value is “directly dried up and died”. In assay [1] (Abutilon theophrasti Medicago), the “GR50 (95% confidence interval)” value was 1.19 (0.26-2.46) g a.i./ha and the “GR90 (95% confidence interval)” value is given as 7.90 (4.76-10.66) g a.i./ha. For the same molecule, in the assay with Portulaca oleracea, the “Control efficacy compared with Topramezone (in words)” value is listed as “slightly better control efficacy”, the “GR50 (95% confidence interval)” value is reported as 5.57 (4.07-7.00) g a.i./ha and the “GR90 (95% confidence interval)” value was 28.20 (23.41-35.73) g a.i./ha. Further, in the assay on Echinochloa crusgalli, the GR50 was found to be 6.13 g a.i./ha and the GR90 was 12.64 g a.i./ha. In the assay on Eleusine indica, the GR50 was 3.79 g a.i./ha and the GR90 turned out to be 19.79 g a.i./ha. In the assay with Digitaria sanguinalis, this molecule displayed a GR50 of 12.53 g a.i./ha and a GR90 of 48.19 g a.i./ha.
Take `Cc1c(C(=O)c2cnn(C)c2O)ccc(S(C)(=O)=O)c1C1=NOCC1` [Topramezone]: in assay [1], the “Visual observation of weeds” value was “directly dried up and died”. The “GR50 (95% confidence interval)” value is 2.02 (0.77-3.38) g a.i./ha in assay [1] (Abutilon theophrasti Medicago) and 7.56 (6.00-9.07) g a.i./ha in the assay on Portulaca oleracea. Moreover, the “GR90 (95% confidence interval)” value is reported as 8.83 (6.22-11.10) g a.i./ha in assay [1] (Abutilon theophrasti Medicago) and 35.74 (29.42-46.03) g a.i./ha in the assay on Portulaca oleracea. Further, the figures for the GR50 in the assay with Echinochloa crusgalli, in the assay on Eleusine indica and with Digitaria sanguinalis were 6.52 g a.i./ha, 2.75 g a.i./ha and 10.09 g a.i./ha, respectively. The GR90 came out at 12.92 g a.i./ha in the assay with Echinochloa crusgalli, 16.07 g a.i./ha with Eleusine indica and 36.27 g a.i./ha with Digitaria sanguinalis.
Take `COC(=O)OC(C)Oc1c(C(=O)c2ccc(S(C)(=O)=O)c(C3=NOCC3)c2C)cnn1C` (stereo not drawn) [Compound I, 1-((4-(3-(4,5-dihydroisoxazol-3-yl)-2-methyl-4-(methylsulfonyl)benzoyl)-1-methyl-1H-pyrazol-5-yl)oxy)ethyl methyl carbonate]: in assay [1], the “Visual observation of weeds” value was “directly dried up and died”. Further, the “GR90 (95% confidence interval)” value in assay [1] (Abutilon theophrasti Medicago) was 9.48 (4.30-13.21) g a.i./ha. Also, in assay [1] (Abutilon theophrasti medicus), the “GR50 (95% confidence interval)” value is given as 3.16 (0.37-5.92) g a.i./ha. In the assay on Portulaca oleracea, the “Control efficacy compared with Topramezone (in words)” value was “significantly better control efficacy”, the “Efficacy relative to that of Topramezone” value is on record as “approximately 3.8 times”, the “GR50 (95% confidence interval)” value is on record as 3.83 (2.36-5.16) g a.i./ha and the “GR90 (95% confidence interval)” value is recorded as 9.29 (7.46-10.81) g a.i./ha. In addition, in the assay with Echinochloa crusgalli, the GR50 is 6.03 g a.i./ha and the GR90 is 11.04 g a.i./ha. Further, in the assay on Eleusine indica, the GR50 is given as 2.71 g a.i./ha and the GR90 came out at 14.85 g a.i./ha. In the assay with Digitaria sanguinalis, this molecule showed a GR50 of 10.92 g a.i./ha and a GR90 of 35.88 g a.i./ha.
